The record followed here is patent US20060099712A1, “Correlation of anti-cancer activity of dyes with redox potentials” (Eastman Kodak Company, priority 2004, published 2006).

This experiment deals with CX-1 Human Colon Carcinoma. Briefly: Clonogenic dye screening assay, CX-1 cells (IC50). The format is cell-based. Particulars: for CX (IC50 in the CX-1 cell line): 3 hrs treatment, colonies after 7-10 days, unit from method b117-118; for CV/CX (selectivity, kill ratio): ratio of IC50 in normal CV-1 line to IC50 in carcinoma CX-1 line. The text has this: CX-1 is a cancerous human colon adenocarcinoma cell line. CV-1 is a non-cancerous control, which is a kidney epithelial cell line from an African green monkey. IC50 is the dye concentration at which 50% of the cells are killed. Selectivity or kill ratio is defined as the ratio of […] at IC50 for both CX-1 and CV-1. A ratio with a high number indicates a high selectivity.
The dyes were screened in two cell lines. CX-1 is a human colon adenocarcinoma cell line. CV-1 is a kidney epithelial cell line from an African green monkey. CV-1 was used as a reference because no normal human epithelial cell line is available for clonogenic assay.
In the initial screen, dyes were examined at six different concentrations to generate a dose response curve. An IC50 value, the concentration at which 50% of the cells are killed, was then calculated. Initially, a dye concentration of 1.0 μg/mL was the highest examined for the CX-1 cell line and 0.005 μg/mL was the lower limit. The corresponding limits on the CV-1 cell line were […].
The screening procedure used a response curve that was determined from eight dye concentrations. The upper and lower limits of CX-1 were 0.32 and 0.0015 μg/mL, respectively, and the corresponding revised limits on CV-1 were 3.2 and 0.025 μg/mL. The screening results were reported by assigning an IC50 value to each dye for the CV-1 and CX-1 cell lines. These values will be referred to herein simply as CV and CX. The most desirable result would be to have a dye that was highly toxic to carcinoma cells but nontoxic to ‘normal’ cells. One measure of this type of selectivity is the ratio of the IC50's in the normal cell line to that in the carcinoma line, CV/CX.
Compounds are screened via an in vitro assay. CV-1 and CX-1 cells are seeded into separate assay plates. The plates are treated with varying concentrations of test compounds, rinsed, and colonies allowed to grow. IC50's are determined and drugs evaluated based on their selectivity and toxicity. Assay Steps: • I. Seeding Cells • II. Weighing • III. Preparation of Solution • IV. Treatment • V. Rinsing and Feeding • VI. Fixing • VII. IC50 Determination I. Seeding Cells
The cells should be seeded 16-30 hours before treatment. The media for CV-1 cells is DME+5% calf serum +5% Nuserum. The media for CX-1 cells is RPMI/DME (50/50)+5% calf serum +5% Nuserum.
(c) number of cells based on 2000 CX-1 cells/well and 1000 CV-1 cells/well. NOTE: Always make enough cell suspension for 1 extra plate to allow for volume loss during transfers.
• (a) For CV-1: 256 ug/ml-256 ul of 1 mg/ml stock +744 ul DMSO • (b) For CX-1: 25.6 ug/ml-100 ul of 256 ug/ml+900 ul DMSO IV. Treatment • 1. Each plate is treated with 4 test compounds, one positive control and one negative control. • 2. Serial dilutions of the compounds are made in the following way:
2 multi-well pipetters are used. One is set for 10 ul and one for 200 ul. Each is equipped with 6 tips spaced such that they fit into the 6 rows of a plate. 390 ul of media is added to the first column of each plate. 10 ul each of 4 compound solutions, a positive and a negative control are taken up and put into the first column of wells. The 200 ul pipetter is then placed in the same wells, pipetted up and down 3 times and two 200 ul aliquots are moved to the next column of wells. This column is pipetted up and down 3 times and 400 ul moved to column 3, etc. The final 400 ul excess from column 8 is discarded.
• 3. Label the plates along the front, each row −1 compound. • 4. Incubate the plates at 37° C. for 3 hrs. V. Rinsing • 1. Prepare several bottles of CX-1 and CV-1 media. • 2. Check for precipitate in first column of each plate and note. • 3. Starting with the plates treated first, rinse several plates at a time by aspirating the treatments and refilling each well with 0.5-1.0 ml of the rinse media. Aspirate and refill 2 more times for a total of 3 rinses. • 4.

Setting [1] is: listed as drawing 41|Et|5-Cl|5-Cl.

Take `CCN(CC)C(=O)C[n+]1c(/C=C/C=C2\Oc3ccccc3N2CC)sc2ccccc21` [drawing 37|Cc(═0)N(Et)2|Et]: the “CX (IC50 in the CX-1 cell line)” value came out at 0.3 µg/mL and the “CV/CX (selectivity, kill ratio)” value is on record as above 33.3.
The matching figures for `CC[n+]1c(/C=C/C=C2\Oc3ccccc3N2CC(=O)c2ccccc2)sc2ccccc21` [drawing 37|Et|C(C═O)Ph]: 0.8 µg/mL and 3.7.
The matching figures for `CC[n+]1c(/C=C/C=C2\Oc3ccccc3N2CC(F)(F)F)sc2ccccc21` [drawing 37|Et|CC(F)3]: 0.1 µg/mL and 50.0.
The matching figures for `CC[n+]1c(/C=C(/C=C2\Sc3ccccc3N2C)SC)sc2ccccc21` [drawing 38|E/M|H|SMe|H]: 0.008 µg/mL and 37.5.
Turning to `CC[n+]1c(/C=C(/C=C2\Sc3ccccc3N2C)Sc2ccccc2)sc2ccccc21` [drawing 38|E/M|H|SPh|H], the “CX (IC50 in the CX-1 cell line)” value came out at 0.07 µg/mL and the “CV/CX (selectivity, kill ratio)” value stood at 10.0.
As to `CCN1C(=CC(=Cc2sc3ccccc3[n+]2CC)c2cccs2)Sc2ccccc21` [drawing 38|E|H|2Thienyl|H], the “CX (IC50 in the CX-1 cell line)” value was found to be 0.16 µg/mL and the “CV/CX (selectivity, kill ratio)” value came to 10.0.
For `CCN1/C(=C/C(=C/c2sc3ccccc3[n+]2CC)C(=S)SC)Sc2ccccc21` [drawing 38|E|H|C(═S)SC|H], the “CV/CX (selectivity, kill ratio)” value was above 10.0.
For `CCN1/C(=C/C(=C/c2sc3ccccc3[n+]2CC)C(=S)[S-])Sc2ccccc21` [drawing 38|E|H|C(═S)S—|H], the “CX (IC50 in the CX-1 cell line)” value was above 0.32 µg/mL and the “CV/CX (selectivity, kill ratio)” value was below 8.7.
As for `CCC(=Cc1sc2ccccc2[n+]1CC)C=C1Sc2ccccc2N1CC` [drawing 38|E|H|Et|H], the “CV/CX (selectivity, kill ratio)” value was determined as 10.0.
The same measure, in the same setting: the value for `CCN1C(=CC(C)=Cc2sc3ccccc3[n+]2CC)Sc2ccccc21` [drawing 38|E|H|Me|H] was 8.0.
Consider `CCN1C(=CC(=Cc2sc3ccccc3[n+]2CC)SC)Sc2ccccc21` [drawing 38|E|H|SMe|H], for which the “CX (IC50 in the CX-1 cell line)” value came out at 0.24 µg/mL and the “CV/CX (selectivity, kill ratio)” value is 1.25.
With `CCN1/C(=C/C(=C/c2sc3ccccc3[n+]2CC)Sc2ccc(C)cc2)Sc2ccccc21` [drawing 38|E|H|SPhMe|H], the “CX (IC50 in the CX-1 cell line)” value was 0.07 µg/mL and the “CV/CX (selectivity, kill ratio)” value is 3.57.
Taken in the same sequence, the figures for `CCSC(=Cc1sc2ccccc2[n+]1CC)C=C1Sc2ccccc2N1CC` [drawing 38|E|H|Set|H] were 0.04 µg/mL and 15.0.
In the case of `CN1/C(=C/C=C(\C=O)c2sc3ccccc3[n+]2C)Sc2ccccc21` [drawing 38|M|CHO|H|H], the “CX (IC50 in the CX-1 cell line)” value is above 0.32 µg/mL and the “CV/CX (selectivity, kill ratio)” value is recorded as 10.0.
On to `CCC(=Cc1sc2ccccc2[n+]1C)C=C1Sc2ccccc2N1C` [drawing 38|M|H|Et|H], for which the “CV/CX (selectivity, kill ratio)” value came out at 14.0.
Turning to `CC(=Cc1sc2ccccc2[n+]1C)C=C1Sc2ccccc2N1C` [drawing 38|M|H|Me|H], the “CX (IC50 in the CX-1 cell line)” value came out at 0.02 µg/mL and the “CV/CX (selectivity, kill ratio)” value is on record as 5.0.
Taken in the same sequence, the figures for `CSC(=Cc1sc2ccccc2[n+]1C)C=C1Sc2ccccc2N1C` [drawing 38|M|H|SMe|H] were 0.015 µg/mL and 26.6.
The matching figures for `CN1C(=CC(=Cc2sc3ccccc3[n+]2C)Sc2ccccc2)Sc2ccccc21` [drawing 38|M|H|SPh|H]: 0.065 µg/mL and 7.69.
For the compound `CCN1C(=CC(=Cc2sc3ccccc3[n+]2CC)CSC(C)=O)Oc2ccccc21` [drawing 39|E|H|CSC(═O)C], the “CX (IC50 in the CX-1 cell line)” value was 0.03 µg/mL and the “CV/CX (selectivity, kill ratio)” value was determined as 33.3.
In the case of `CCC(=Cc1sc2ccccc2[n+]1CC)C=C1Oc2ccccc2N1CC` [drawing 39|E|H|Et], the “CX (IC50 in the CX-1 cell line)” value was found to be 0.03 µg/mL and the “CV/CX (selectivity, kill ratio)” value was found to be 33.3.
The matching figures for `CCN1C(=CC(C)=Cc2sc3ccccc3[n+]2CC)Oc2ccccc21` [drawing 39|E|H|Me]: 0.05 µg/mL and 20.0.
For `CCN1/C(=C/C=C(\OC(C)=O)c2sc3ccccc3[n+]2CC)Oc2ccccc21` [drawing 39|E|OAc|H], the “CV/CX (selectivity, kill ratio)” value stood at 10.0.
Same read-out and setting: the value for `CCN1/C(=C/C=C(\O)c2sc3ccccc3[n+]2CC)Oc2ccccc21` [drawing 39|E|OH|H] was 10.0.
Turning to `CC[n+]1c(/C=C(/C=C2\Oc3ccccc3N2C)Sc2ccccc2)sc2ccccc21` [drawing 39|M/E|H|SPh], the “CX (IC50 in the CX-1 cell line)” value worked out at 0.1 µg/mL and the “CV/CX (selectivity, kill ratio)” value is 3.0.
As for `CC[n+]1c(/C(=C/C=C2\Oc3ccccc3N2C)Sc2ccccc2)sc2ccccc21` [drawing 39|M/E|SPh|H], the “CV/CX (selectivity, kill ratio)” value was 3.0.
As to `CCC(/C=C1\Oc2ccc3ccccc3c2N1CC)=C\c1sc2ccc3ccccc3c2[n+]1CC` [drawing 40|E|Et], the “CX (IC50 in the CX-1 cell line)” value was 0.06 µg/mL and the “CV/CX (selectivity, kill ratio)” value stood at 5.0.
The matching figures for `CCN1/C(=C\C=C\c2sc3ccc4ccccc4c3[n+]2CC)Oc2ccc3ccccc3c21` [drawing 40|E|H]: 0.3 µg/mL and 6.7.
Taken in the same sequence, the figures for `CCSC(=C\c1sc2ccc3ccccc3c2[n+]1CC)/C=C1\Oc2ccc3ccccc3c2N1CC` [drawing 40|E|SEt] were 0.04 µg/mL and 1.25.
The matching figures for `CCN1/C(=C/C(=C/c2sc3ccc4ccccc4c3[n+]2CC)SC)Oc2ccc3ccccc3c21` [drawing 40|E|SMe]: 0.04 µg/mL and 5.0.
On to `CCC(/C=C1\Oc2ccc3ccccc3c2N1C)=C\c1sc2ccc3ccccc3c2[n+]1C` [drawing 40|M|Et], for which the “CX (IC50 in the CX-1 cell line)” value was 0.08 µg/mL and the “CV/CX (selectivity, kill ratio)” value is reported as 5.0.
In the case of `CN1/C(=C/C(=C/c2sc3ccc4ccccc4c3[n+]2C)c2ccccc2)Oc2ccc3ccccc3c21` [drawing 40|M|Ph], the “CX (IC50 in the CX-1 cell line)” value turned out to be 0.03 µg/mL and the “CV/CX (selectivity, kill ratio)” value is 10.0.
Regarding `CCN1C(=CC=Cc2sc3ccc(Cl)cc3[n+]2CC)Sc2ccc(Cl)cc21` [drawing 41|ET|5-Cl|5-Cl], the “CX (IC50 in the CX-1 cell line)” value was determined as 0.04 µg/mL and the “CV/CX (selectivity, kill ratio)” value came out at 40.0. Under setting [1], the “CX (IC50 in the CX-1 cell line)” value was 0.30 µg/mL and the “CV/CX (selectivity, kill ratio)” value was 16.7.
Take `CCN1/C(=C/C=C/c2sc3cc(O)c(O)cc3[n+]2CC)Sc2ccccc21` [drawing 41|Et|5,5-OH|H]: the “CV/CX (selectivity, kill ratio)” value is reported as 10.0.
Regarding `CCN1C(=CC=Cc2sc3cc(OC)c(OC)cc3[n+]2CC)Sc2ccccc21` [drawing 41|Et|5,6-MeO|H], the “CX (IC50 in the CX-1 cell line)” value worked out at 0.02 µg/mL and the “CV/CX (selectivity, kill ratio)” value is 20.0.
The matching figures for `CCN1C(=CC=Cc2sc3ccc(Br)cc3[n+]2CC)Sc2ccc(Br)cc21` [drawing 41|Et|5-Br|5-Br]: 0.04 µg/mL and 35.0.
